Experimental data reported in PMC8211653, “Polθ inhibitors elicit BRCA-gene synthetic lethality and target PARP inhibitor resistance” (Nature Communications, 2021).

Legend:
DNA polymerase Polθ = biological target: T1, DNA polymerase Polθ (Homo sapiens, UniProt O75417); test: PicoGreen DNA primer extension assay with recombinant full-length enzyme; supported by DNA-dependent DSF stabilisation and mechanism-of-action kinetics; type: biochemical
T1 construct: gene POLQ; full-length (residues 2–2590)

Polα = biological target: T2, Polα (Homo sapiens, UniProt P09884); test: biochemical; design: inhibition of human DNA polymerases, selectivity assay
T2 construct: gene POLA1
T2 sequence (P09884 1-1462): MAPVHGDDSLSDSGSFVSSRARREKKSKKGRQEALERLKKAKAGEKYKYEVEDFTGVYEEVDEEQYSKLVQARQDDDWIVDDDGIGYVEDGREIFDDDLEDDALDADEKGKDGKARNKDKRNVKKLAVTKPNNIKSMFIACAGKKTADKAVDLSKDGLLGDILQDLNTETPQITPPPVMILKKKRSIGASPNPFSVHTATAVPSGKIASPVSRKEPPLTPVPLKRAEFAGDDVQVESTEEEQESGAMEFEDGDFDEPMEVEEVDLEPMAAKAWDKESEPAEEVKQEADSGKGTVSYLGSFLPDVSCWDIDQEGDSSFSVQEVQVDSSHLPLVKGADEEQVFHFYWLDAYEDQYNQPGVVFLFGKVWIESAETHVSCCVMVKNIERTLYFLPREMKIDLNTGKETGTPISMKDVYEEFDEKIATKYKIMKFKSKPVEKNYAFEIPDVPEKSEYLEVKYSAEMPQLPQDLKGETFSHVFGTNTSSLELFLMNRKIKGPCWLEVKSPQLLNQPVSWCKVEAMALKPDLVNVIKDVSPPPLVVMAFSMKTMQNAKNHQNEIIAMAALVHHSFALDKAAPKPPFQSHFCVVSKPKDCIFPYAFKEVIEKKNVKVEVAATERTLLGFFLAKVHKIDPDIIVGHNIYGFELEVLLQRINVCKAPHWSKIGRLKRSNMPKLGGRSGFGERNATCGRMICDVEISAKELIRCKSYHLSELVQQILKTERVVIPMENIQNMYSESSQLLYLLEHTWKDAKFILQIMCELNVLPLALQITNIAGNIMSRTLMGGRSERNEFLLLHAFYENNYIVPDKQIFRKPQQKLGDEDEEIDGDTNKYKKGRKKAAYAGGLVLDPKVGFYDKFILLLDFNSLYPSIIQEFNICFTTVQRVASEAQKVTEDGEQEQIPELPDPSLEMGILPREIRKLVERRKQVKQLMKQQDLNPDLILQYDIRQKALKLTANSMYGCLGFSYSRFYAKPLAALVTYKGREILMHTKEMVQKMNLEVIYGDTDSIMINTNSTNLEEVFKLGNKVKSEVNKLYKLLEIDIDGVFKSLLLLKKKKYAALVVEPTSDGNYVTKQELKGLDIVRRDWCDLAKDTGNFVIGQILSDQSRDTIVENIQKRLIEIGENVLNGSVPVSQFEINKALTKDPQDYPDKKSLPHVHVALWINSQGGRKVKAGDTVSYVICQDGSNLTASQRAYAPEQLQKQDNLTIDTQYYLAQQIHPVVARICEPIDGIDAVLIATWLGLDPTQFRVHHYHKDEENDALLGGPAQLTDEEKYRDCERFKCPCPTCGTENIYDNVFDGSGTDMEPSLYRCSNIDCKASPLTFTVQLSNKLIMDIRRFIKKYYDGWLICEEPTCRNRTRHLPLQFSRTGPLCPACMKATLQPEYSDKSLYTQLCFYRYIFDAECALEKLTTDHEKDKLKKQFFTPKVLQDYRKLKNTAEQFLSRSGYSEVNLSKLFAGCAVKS

Polγ = biological target: T3, Polγ (Homo sapiens, UniProt P54098); test: biochemical; design: inhibition of human DNA polymerases, selectivity assay
T3 construct: gene POLG
T3 sequence (P54098 1-1239): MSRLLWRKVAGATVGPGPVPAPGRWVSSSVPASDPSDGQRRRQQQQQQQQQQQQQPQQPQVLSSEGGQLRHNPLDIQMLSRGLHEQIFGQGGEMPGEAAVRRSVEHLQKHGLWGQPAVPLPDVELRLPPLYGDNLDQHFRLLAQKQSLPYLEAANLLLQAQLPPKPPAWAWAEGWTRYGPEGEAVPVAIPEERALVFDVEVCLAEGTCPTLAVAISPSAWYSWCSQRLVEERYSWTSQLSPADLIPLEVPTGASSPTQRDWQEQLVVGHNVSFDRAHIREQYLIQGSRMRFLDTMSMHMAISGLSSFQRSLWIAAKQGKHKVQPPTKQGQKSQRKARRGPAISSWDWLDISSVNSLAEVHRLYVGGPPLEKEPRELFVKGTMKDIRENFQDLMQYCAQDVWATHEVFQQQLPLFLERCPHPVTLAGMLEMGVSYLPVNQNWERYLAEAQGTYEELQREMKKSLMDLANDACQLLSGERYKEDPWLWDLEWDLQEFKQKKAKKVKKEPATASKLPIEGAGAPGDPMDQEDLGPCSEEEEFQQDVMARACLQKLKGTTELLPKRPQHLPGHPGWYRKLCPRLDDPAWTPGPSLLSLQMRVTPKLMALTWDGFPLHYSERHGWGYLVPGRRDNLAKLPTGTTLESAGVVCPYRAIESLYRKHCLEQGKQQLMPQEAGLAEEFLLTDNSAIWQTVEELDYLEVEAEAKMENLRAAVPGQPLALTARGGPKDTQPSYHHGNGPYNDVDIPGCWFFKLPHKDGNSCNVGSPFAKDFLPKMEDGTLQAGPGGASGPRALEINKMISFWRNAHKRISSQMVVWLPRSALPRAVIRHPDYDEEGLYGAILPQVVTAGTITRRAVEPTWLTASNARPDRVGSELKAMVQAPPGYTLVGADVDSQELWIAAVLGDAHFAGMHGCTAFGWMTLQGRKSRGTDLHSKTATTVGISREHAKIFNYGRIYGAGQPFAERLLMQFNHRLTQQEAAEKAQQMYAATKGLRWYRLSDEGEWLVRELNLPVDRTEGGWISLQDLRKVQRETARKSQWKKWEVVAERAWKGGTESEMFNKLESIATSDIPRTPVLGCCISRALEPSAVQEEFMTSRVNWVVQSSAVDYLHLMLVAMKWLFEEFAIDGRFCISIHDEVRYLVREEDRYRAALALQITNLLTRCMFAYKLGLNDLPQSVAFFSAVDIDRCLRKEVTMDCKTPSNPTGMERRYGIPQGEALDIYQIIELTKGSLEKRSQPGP

Polη = biological target: T4, Polη (Homo sapiens, UniProt Q9Y253); test: biochemical; design: inhibition of human DNA polymerases, selectivity assay
T4 construct: gene POLH
T4 sequence (Q9Y253 1-713): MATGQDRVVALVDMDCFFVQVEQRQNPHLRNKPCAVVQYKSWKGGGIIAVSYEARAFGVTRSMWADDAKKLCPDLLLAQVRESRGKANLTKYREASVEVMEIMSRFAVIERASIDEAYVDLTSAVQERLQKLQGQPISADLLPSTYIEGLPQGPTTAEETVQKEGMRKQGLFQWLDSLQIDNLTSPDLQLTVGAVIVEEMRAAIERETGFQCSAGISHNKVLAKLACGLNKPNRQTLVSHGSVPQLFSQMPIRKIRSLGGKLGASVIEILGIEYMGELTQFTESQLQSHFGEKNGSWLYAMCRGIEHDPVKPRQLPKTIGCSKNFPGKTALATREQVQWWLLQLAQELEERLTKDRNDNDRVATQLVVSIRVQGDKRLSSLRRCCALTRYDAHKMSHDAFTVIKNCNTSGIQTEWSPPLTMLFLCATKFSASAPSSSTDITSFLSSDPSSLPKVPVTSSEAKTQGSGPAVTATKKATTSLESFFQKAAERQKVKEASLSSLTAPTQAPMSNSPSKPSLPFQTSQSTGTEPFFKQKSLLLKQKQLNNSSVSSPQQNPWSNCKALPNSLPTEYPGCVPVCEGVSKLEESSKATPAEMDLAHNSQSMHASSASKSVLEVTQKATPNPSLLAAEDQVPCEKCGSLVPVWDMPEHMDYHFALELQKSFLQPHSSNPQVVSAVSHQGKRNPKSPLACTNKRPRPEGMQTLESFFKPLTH

Polν = biological target: T5, Polν (Homo sapiens, UniProt Q7Z5Q5); test: biochemical; design: inhibition of human DNA polymerases, selectivity assay
T5 construct: gene POLN
T5 sequence (Q7Z5Q5 1-900): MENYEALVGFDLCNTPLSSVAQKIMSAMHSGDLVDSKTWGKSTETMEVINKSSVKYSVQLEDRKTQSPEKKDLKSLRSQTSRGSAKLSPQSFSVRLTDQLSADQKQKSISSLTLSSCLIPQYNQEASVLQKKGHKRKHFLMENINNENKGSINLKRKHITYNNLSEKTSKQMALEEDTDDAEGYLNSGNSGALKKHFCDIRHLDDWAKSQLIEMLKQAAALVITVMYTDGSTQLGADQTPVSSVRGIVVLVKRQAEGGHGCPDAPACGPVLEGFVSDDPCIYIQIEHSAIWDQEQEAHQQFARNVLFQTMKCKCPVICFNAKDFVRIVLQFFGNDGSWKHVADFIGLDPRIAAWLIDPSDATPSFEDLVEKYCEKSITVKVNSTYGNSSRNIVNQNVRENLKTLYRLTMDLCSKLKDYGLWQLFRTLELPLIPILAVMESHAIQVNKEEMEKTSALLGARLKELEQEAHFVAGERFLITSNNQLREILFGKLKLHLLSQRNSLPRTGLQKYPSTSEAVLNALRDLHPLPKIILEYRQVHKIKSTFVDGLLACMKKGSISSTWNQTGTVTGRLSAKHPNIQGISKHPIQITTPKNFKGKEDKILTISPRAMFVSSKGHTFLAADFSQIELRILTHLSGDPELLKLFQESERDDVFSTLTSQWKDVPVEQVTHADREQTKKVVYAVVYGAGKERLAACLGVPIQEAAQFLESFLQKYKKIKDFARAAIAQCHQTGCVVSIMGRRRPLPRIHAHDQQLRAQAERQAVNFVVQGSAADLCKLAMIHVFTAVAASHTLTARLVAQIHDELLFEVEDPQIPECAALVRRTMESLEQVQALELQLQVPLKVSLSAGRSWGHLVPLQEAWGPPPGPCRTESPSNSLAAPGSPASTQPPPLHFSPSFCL

T1 sequence (O75417 2-2590): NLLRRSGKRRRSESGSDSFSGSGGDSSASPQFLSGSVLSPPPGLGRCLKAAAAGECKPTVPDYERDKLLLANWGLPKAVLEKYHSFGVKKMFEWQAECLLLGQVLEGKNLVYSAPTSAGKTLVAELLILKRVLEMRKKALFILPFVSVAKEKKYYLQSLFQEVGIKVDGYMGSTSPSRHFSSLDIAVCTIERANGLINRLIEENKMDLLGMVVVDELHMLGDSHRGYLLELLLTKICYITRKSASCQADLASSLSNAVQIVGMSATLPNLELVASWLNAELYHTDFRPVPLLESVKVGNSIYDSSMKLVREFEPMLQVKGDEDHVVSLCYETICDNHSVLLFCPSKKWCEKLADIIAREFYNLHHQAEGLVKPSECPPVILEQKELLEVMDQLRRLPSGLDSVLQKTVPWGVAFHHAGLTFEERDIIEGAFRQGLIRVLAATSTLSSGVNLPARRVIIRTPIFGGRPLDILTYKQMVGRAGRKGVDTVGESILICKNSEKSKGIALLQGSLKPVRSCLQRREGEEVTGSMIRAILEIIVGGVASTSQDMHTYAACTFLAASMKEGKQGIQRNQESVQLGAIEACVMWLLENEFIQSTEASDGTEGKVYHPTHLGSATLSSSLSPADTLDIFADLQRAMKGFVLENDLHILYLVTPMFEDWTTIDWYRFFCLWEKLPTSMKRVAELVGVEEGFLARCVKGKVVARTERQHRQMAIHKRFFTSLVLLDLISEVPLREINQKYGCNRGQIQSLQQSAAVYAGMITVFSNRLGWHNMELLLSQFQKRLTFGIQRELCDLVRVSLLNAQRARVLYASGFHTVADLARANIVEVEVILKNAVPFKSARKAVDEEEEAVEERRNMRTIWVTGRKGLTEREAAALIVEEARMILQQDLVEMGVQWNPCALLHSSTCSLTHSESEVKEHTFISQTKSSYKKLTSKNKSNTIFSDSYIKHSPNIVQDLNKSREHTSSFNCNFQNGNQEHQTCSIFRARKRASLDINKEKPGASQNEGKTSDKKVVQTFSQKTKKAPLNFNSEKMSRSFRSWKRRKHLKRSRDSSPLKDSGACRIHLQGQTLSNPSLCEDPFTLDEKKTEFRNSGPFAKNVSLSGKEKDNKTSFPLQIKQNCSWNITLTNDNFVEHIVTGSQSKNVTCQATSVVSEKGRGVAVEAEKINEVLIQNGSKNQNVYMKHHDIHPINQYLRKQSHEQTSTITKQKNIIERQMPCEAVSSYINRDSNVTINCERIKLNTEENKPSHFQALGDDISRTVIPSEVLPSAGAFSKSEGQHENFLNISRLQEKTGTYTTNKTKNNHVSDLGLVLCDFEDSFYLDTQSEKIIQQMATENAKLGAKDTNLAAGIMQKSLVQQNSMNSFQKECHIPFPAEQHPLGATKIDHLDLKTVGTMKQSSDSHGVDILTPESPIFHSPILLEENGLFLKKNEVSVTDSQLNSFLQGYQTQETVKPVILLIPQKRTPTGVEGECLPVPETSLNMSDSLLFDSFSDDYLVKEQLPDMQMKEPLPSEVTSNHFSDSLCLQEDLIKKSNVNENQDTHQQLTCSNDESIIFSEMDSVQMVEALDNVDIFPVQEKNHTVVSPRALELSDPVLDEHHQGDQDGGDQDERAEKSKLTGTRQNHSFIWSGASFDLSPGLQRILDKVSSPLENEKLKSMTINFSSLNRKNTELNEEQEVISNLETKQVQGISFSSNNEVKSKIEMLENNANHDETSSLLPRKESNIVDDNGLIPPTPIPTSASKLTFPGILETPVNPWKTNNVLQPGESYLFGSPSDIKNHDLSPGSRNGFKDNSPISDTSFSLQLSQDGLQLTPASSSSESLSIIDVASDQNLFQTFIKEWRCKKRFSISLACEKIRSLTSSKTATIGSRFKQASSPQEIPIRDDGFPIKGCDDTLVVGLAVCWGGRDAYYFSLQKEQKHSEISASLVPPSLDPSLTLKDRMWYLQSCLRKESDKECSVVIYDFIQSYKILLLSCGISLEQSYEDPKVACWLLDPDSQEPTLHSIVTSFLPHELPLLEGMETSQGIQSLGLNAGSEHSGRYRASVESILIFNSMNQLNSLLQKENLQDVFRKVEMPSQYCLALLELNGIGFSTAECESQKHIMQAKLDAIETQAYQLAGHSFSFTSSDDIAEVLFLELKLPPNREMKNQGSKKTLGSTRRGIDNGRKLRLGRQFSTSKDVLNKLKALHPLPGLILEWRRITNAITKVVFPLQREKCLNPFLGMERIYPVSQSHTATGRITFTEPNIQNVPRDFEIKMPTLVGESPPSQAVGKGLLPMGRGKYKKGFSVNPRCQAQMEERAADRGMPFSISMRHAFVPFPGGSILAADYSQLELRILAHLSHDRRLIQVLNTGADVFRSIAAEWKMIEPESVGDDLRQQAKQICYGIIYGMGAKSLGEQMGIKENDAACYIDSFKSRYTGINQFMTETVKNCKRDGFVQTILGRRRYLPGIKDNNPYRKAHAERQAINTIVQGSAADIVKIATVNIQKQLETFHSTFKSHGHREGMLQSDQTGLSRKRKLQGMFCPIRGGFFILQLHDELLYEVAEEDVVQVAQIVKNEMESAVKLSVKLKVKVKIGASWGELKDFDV

IC50 (DNA polymerase Polθ): 7.9 nM
IC50 (Polα): > 100 µM
IC50 (Polγ): > 100 µM
IC50 (Polη): > 100 µM
IC50 (Polν): > 100 µM
SMILES: Cc1cccc(N(C)C(=O)[C@@H]2[C@H](O)CCN2c2nc(C)cc(C(F)(F)F)c2C#N)c1 [ART558]
